Experimental data taken from ChEMBL document CHEMBL1201862, “PubChem BioAssay data set” (2004).
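How tested: cells in 96-well plates exposed to compound for 48 hours at five concentrations. GI50 is the concentration that inhibits growth by half.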 Active and inactive are the calls of the source. Cut-off read from the data, not from the text of the source: active = GI50 up to about 1.1 µM and inactive = higher.

Key:
Test in all cases: NCI tumour cell line growth inhibition, 48 h
[1] = tested on: SK-OV-3
[2] = tested on: MDA-MB-435
[3] = tested on: HOP-62
[4] = tested on: CCRF-CEM
[5] = tested on: DU-145
[6] = tested on: MOLT-4
[7] = tested on: UACC-62
[8] = tested on: SW-620
[9] = tested on: PC-3
[10] = tested on: RPMI-8226
[11] = tested on: SF-295
[12] = tested on: UO-31
[13] = tested on: TK-10
[14] = tested on: MCF7
[15] = tested on: UACC-257
[16] = tested on: BT-549
[17] = tested on: HT-29
[18] = tested on: KM12
[19] = tested on: HCC 2998
[20] = tested on: 786-0

Row | SMILES | GI50 [1] | GI50 [2] | GI50 [3] | GI50 [4] | GI50 [5] | GI50 [6] | GI50 [7] | GI50 [8] | GI50 [9] | GI50 [10] | GI50 [11] | GI50 [12] | GI50 [13] | GI50 [14] | GI50 [15] | GI50 [16] | GI50 [17] | GI50 [18] | GI50 [19] | GI50 [20]
1 | O=C(O)CCC(NC(=O)c1ccc(Nc2cnc3ccc(C(F)(F)F)cc3n2)cc1)C(=O)O (configuration not stated) | > 100 µM (inactive) | > 100 µM (inactive) | > 100 µM (inactive) | > 100 µM (inactive) | > 100 µM (inactive) | > 100 µM (inactive) | > 100 µM (inactive) | > 100 µM (inactive) | > 100 µM (inactive) | > 100 µM (inactive) | > 100 µM (inactive) | > 100 µM (inactive) | > 100 µM (inactive) | > 100 µM (inactive) | > 100 µM (inactive) | > 100 µM (inactive) | > 100 µM (inactive) | > 100 µM (inactive) | > 100 µM (inactive) | > 100 µM (inactive)
2 | Cc1ccc2c(=O)c3c(O)c4c(cc3n(C)c2c1)OC(C)(C)C=C4 | > 10 µM (inactive) | > 10 µM (inactive) | > 10 µM (inactive) | > 10 µM (inactive) | > 10 µM (inactive) | > 10 µM (inactive) | > 10 µM (inactive) | > 10 µM (inactive) | > 10 µM (inactive) | > 10 µM (inactive) | > 10 µM (inactive) |  | > 10 µM (inactive) | > 10 µM (inactive) | > 10 µM (inactive) | > 10 µM (inactive) | > 10 µM (inactive) | > 10 µM (inactive) | > 10 µM (inactive) | > 10 µM (inactive)
3 | C[C@]12CCC(=O)C=C1CC[C@@H]1[C@@H]2CC[C@]2(C)C(=O)/C(=C\c3ccccc3)C[C@@H]12 | 72.3 µM (inactive) | 24.9 µM (inactive) | 38.6 µM (inactive) | 2.8 µM (inactive) | 33.5 µM (inactive) | 14 µM (inactive) | 23.4 µM (inactive) | 22.8 µM (inactive) | 12.8 µM (inactive) | 10.9 µM (inactive) | 29.9 µM (inactive) | 25.7 µM (inactive) | 44.7 µM (inactive) | 19.1 µM (inactive) | 23.1 µM (inactive) | 25.8 µM (inactive) | 19.6 µM (inactive) | 20.4 µM (inactive) | 17.4 µM (inactive) | 26.1 µM (inactive)
4 | O=C(O)C1(Cc2ccc3c(c2)CCC3)Cc2ccccc2C1=O (configuration not stated) | 50.6 µM (inactive) | > 100 µM (inactive) | 57.8 µM (inactive) | 35.5 µM (inactive) | 75.3 µM (inactive) | 91.4 µM (inactive) | 57.9 µM (inactive) | 75.7 µM (inactive) | 46.7 µM (inactive) | 35.8 µM (inactive) | 33.6 µM (inactive) | 56 µM (inactive) | > 100 µM (inactive) | > 100 µM (inactive) | > 100 µM (inactive) | 37.8 µM (inactive) | > 100 µM (inactive) | 39.7 µM (inactive) | 43.5 µM (inactive) | > 100 µM (inactive)
5 | CC(=O)NC1C(OCc2ccccc2)OC(CO)C(O)C1OCC(=O)N[C@@H](C)C(=O)N[C@H](CCC(=O)NCCCNc1c2ccccc2nc2cccc([N+](=O)[O-])c12)C(N)=O (some centres not stated) | 0.334 µM (active) | 0.0295 µM (active) | 0.08 µM (active) | 0.052 µM (active) | 0.0308 µM (active) | 0.0269 µM (active) | 0.0321 µM (active) | 0.0172 µM (active) | 0.0368 µM (active) | 0.0411 µM (active) | 0.15 µM (active) | 0.123 µM (active) | 0.0253 µM (active) | 0.018 µM (active) | 0.0448 µM (active) | 0.0845 µM (active) | < 0.0149 µM (active) | 0.037 µM (active) | 0.0142 µM (active) | < 0.0168 µM (active)
6 | CC(C)c1ccc(/C=C2\N=C(c3ccc([N+](=O)[O-])cc3)OC2=O)cc1 | > 100 µM (inactive) | > 100 µM (inactive) | > 100 µM (inactive) | 55.7 µM (inactive) | > 100 µM (inactive) | > 100 µM (inactive) | > 100 µM (inactive) | > 100 µM (inactive) | > 100 µM (inactive) | > 100 µM (inactive) | > 100 µM (inactive) |  | > 100 µM (inactive) | > 100 µM (inactive) | > 100 µM (inactive) | > 100 µM (inactive) | > 100 µM (inactive) | > 100 µM (inactive) | > 100 µM (inactive) | > 100 µM (inactive)
7 | O=C1NC(=S)N/C1=C\c1ccc(Cl)cc1 | > 100 µM (inactive) | > 100 µM (inactive) | > 100 µM (inactive) | 54.2 µM (inactive) | 99.8 µM (inactive) | 80.2 µM (inactive) | 46.3 µM (inactive) | > 100 µM (inactive) | > 100 µM (inactive) | 77.3 µM (inactive) | > 100 µM (inactive) | 53.7 µM (inactive) | > 100 µM (inactive) | > 100 µM (inactive) |  | > 100 µM (inactive) | > 100 µM (inactive) | 89.7 µM (inactive) | > 100 µM (inactive) | > 100 µM (inactive)
8 | O=C(O)c1ccc(P(=O)(O)c2ccc(C(=O)O)cc2Br)c(Br)c1 | > 100 µM (inactive) | > 100 µM (inactive) | > 100 µM (inactive) | > 10 µM (inactive) | > 100 µM (inactive) | > 100 µM (inactive) | > 100 µM (inactive) | > 100 µM (inactive) | > 100 µM (inactive) | > 100 µM (inactive) | > 100 µM (inactive) | > 100 µM (inactive) | > 100 µM (inactive) | > 100 µM (inactive) | > 100 µM (inactive) | > 100 µM (inactive) |  | > 100 µM (inactive) | > 100 µM (inactive) | > 100 µM (inactive)
9 | CC(=O)OC12CC(C)C3(O)C4C=C(C)C(=O)[C@@]4(O)CC(CO)=C[C@H]3C1C2(C)C (some centres not stated) | 794 µM (inactive) | 3.67 µM (inactive) | > 100 µM (inactive) | > 1000 µM (inactive) | > 10 µM (inactive) | > 1000 µM (inactive) | 771 µM (inactive) | 5.73 µM (inactive) | > 1000 µM (inactive) | > 10 µM (inactive) |  | > 10 µM (inactive) | 2.34 µM (inactive) | > 10 µM (inactive) | > 10 µM (inactive) | > 10 µM (inactive) | > 10 µM (inactive) | > 10 µM (inactive) | 4.21 µM (inactive) | > 10 µM (inactive)
10 | CSc1c(C#N)c(O)nc(N)c1C(=O)Nc1ccc(C)cc1 | > 100 µM (inactive) | > 100 µM (inactive) |  | 97.5 µM (inactive) | > 100 µM (inactive) | > 100 µM (inactive) | > 100 µM (inactive) | > 100 µM (inactive) | > 100 µM (inactive) | > 100 µM (inactive) |  | 31.4 µM (inactive) | > 100 µM (inactive) | > 100 µM (inactive) | > 100 µM (inactive) | > 100 µM (inactive) | > 100 µM (inactive) | > 100 µM (inactive) | > 100 µM (inactive) | > 100 µM (inactive)
11 | OCCN(CO)CO | > 100 µM (inactive) | > 100 µM (inactive) | > 100 µM (inactive) |  | > 100 µM (inactive) |  | > 100 µM (inactive) | > 100 µM (inactive) | > 100 µM (inactive) | 86.5 µM (inactive) | > 100 µM (inactive) | > 100 µM (inactive) | > 100 µM (inactive) | > 100 µM (inactive) | > 100 µM (inactive) | > 100 µM (inactive) | > 100 µM (inactive) | > 100 µM (inactive) | > 100 µM (inactive) | 91.4 µM (inactive)
12 | C=C1C(=O)OC2C1CC(OC(C)=O)/C(C)=C/CCC1(C)OC21 (configuration not stated) | > 100 µM (inactive) | > 100 µM (inactive) |  | > 100 µM (inactive) | > 100 µM (inactive) | > 100 µM (inactive) | > 100 µM (inactive) | > 100 µM (inactive) | > 100 µM (inactive) | > 100 µM (inactive) | > 100 µM (inactive) | > 100 µM (inactive) |  | > 100 µM (inactive) | > 100 µM (inactive) | > 100 µM (inactive) | > 100 µM (inactive) | > 100 µM (inactive) | > 100 µM (inactive) | > 100 µM (inactive)
13 | O=c1[nH]nc(-c2ccccc2)c2[nH]c3c(c12)Cc1ccccc1-3 | 6.68 µM (inactive) | 0.386 µM (active) | 9.38 µM (inactive) | 3.92 µM (inactive) | 10.4 µM (inactive) | 1.19 µM (inactive) | 0.299 µM (active) | 2.06 µM (inactive) | 4.47 µM (inactive) | 2.37 µM (inactive) | 1.97 µM (inactive) | 5.41 µM (inactive) | 7.59 µM (inactive) | 0.158 µM (active) |  | 21.7 µM (inactive) | 1.4 µM (inactive) | < 0.0306 µM (active) | 6.82 µM (inactive) | 4.8 µM (inactive)
14 | COc1ccc(OC)c(N2C(=O)CSC2c2cc(OC)c(OC)c(OC)c2)c1 (configuration not stated) | > 100 µM (inactive) | 29.8 µM (inactive) |  | 71.8 µM (inactive) | > 100 µM (inactive) | > 100 µM (inactive) | > 100 µM (inactive) | > 100 µM (inactive) | > 100 µM (inactive) | > 100 µM (inactive) | > 100 µM (inactive) | > 100 µM (inactive) | > 100 µM (inactive) | 71.1 µM (inactive) | 89.5 µM (inactive) | 48.4 µM (inactive) | > 100 µM (inactive) | 81.7 µM (inactive) | > 100 µM (inactive) | > 100 µM (inactive)
